Source: paper PMC6938011, “Antiplasmodial profile of selected compounds from Malaria Box: in vitro evaluation, speed of action and drug combination studies” (Malaria Journal, 2019)
Entries after “also recorded” stand apart in the source; their conditions may differ. Read-outs that look alike come from different tables or passages of the source.

Tests used:
[1] = tested on: Hepatocarcinoma cells (HepG2); experiment: Cytotoxicity evaluation, MTT assay; format: cell-based, human; details: HepG2, 72 h, read-out: IC50^HepG2, MTT Average (confidence interval-95%)
Protocol: (§1) Hepatocarcinoma cells (HepG2) were cultivated in RPMI medium supplemented with 10% (v/v) fetal bovine serum and 0.2% (v/v) penicillin/streptomycin. The antibiotics were added to the medium to eliminate the potential interference of microbial contamination. Cells were cultivated at 37 °C and 5% CO2; the supplemented medium was changed every 2 days.
(§2) For the experimental procedures, cells were trypsinized and transferred to a 96-well plate at 30,000 cells per well and incubated at 37 °C overnight for cell adhesion. Then, serial dilutions of the inhibitor candidates were added to the plate. Cells without any compounds were used as positive growth controls. The plate was incubated at 37 °C and 5% CO2 for 72 h. After incubation, the highest compound concentration to be considered (highest concentration without precipitation) was observed by microscopy. Cytotoxicity was evaluated by two different methods. The first is a colorimetric assay based on metabolic cell activity in the presence of 3-(4,5-dimethylthiazol-2-yl)-2,5-diphenyltetrazolium bromide (MTT). Briefly, mitochondrial enzymes can convert the MTT dye into the purple insoluble compound formazan. To each well, 20 µL MTT at 5 mg/mL was added, followed by incubation at 37 °C for 3 to 5 h. After incubation, the supernatant was removed, and formazan crystals were solubilized in 100 µL DMSO. The absorbance, which is proportional to the number of viable cells, was determined using a SpectraMAX Plus 384 plate reader (Molecular Devices Corp., Sunnyvale, CA) (λ = 570 nm). The second method is based on the uptake of neutral red, a dye that is retained inside the lysosomes of viable cells. To each well, after removal of culture media, 200 µL neutral red medium 40 µg/mL was added, followed by incubation at 37 °C for 3 to 5 h. After incubation, supernatant was dispensed, and 200 µL 0.5% (v/v) formaldehyde in 1% (m/v) CaCl2 was added to remove excess of the dye for 5 min. Supernatant was dispensed, and 100 µL alcohol-acid solution (50% (v/v) ethanol, 1% (v/v) glacial acetic acid) was added, and the plate was stirred until a homogeneous solution was formed. The absorbance was determined using a SpectraMAX Plus 384 plate reader (Molecular Devices Corp., Sunnyvale, CA) (λ = 540 nm). For both methods, the half maximal inhibitory concentration (IC50^HepG2) was determined by non-linear regression analysis of the resulting concentration-response curve using the software Origin 2016 (OriginLab Corporation).

[2] = tested on: P. falciparum; details: in vitro ref 34; cited from earlier work
[3] = tested on: P. falciparum; experiment: Combination assays, isobologram analysis (FIC50 pairs); format: cell-based, Plasmodium falciparum; details: for Isobologram data, Additive: fraction of FIC50 pairs / Isobologram data, Additive: number of FIC50 pairs / Isobologram data, Antagonistic: number of FIC50 pairs / Isobologram data, Synergic: number of FIC50 pairs / Isobologram data, Antagonistic: fraction of FIC50 pairs: combination with artesunate; for Combination profile with artesunate: isobologram, IC50 equivalent ratios 1:4, 2:3, 1:1, 3:2, 4:1
Protocol: Combinations of anti-malarial candidates with artesunate, an artemisinin derivative, were tested in fixed molar ratios based on the individual IC50 values that were previously determined by the SYBR Green I assay. Traditionally, a line (isobole) of additivity is used to distinguish between additive, synergic, and antagonistic interaction profiles. […] Thus, a systematic consideration of additivity ranges was included in the isobologram analysis, as previously described by Grabovsky and Tallarida. Concentration-response curves of individual compounds were used in the calculation of each pair’s additivity range (area within the upper and lower limits in Figs. 4 and 5). Fractional inhibitory concentration (FIC50) pairs plotted as points inside the additivity range indicate the expected sum of each compound effect, while points above and below the range indicate antagonistic and synergic interactions, respectively. The selected inhibitors were combined with artesunate in the IC50 equivalent ratios of 1:4, 2:3, 1:1, 3:2 and 4:1 for the construction of the isobolograms.

[4] = tested on: P. falciparum 3D7 strain; experiment: SYBR Green I inhibition assay for the asexual stages of P. falciparum; format: cell-based, Plasmodium falciparum; details: 72 h, read-out: IC50^Pf Average (confidence interval-95%)
Protocol: The P. falciparum 3D7 strain was kept in culture in a humidified incubator at 37 °C in RPMI-1640 medium with 25 mM NaHCO3, 25 mM HEPES (pH 7.4), 11 mM D-glucose, 3.67 mM hypoxanthine and 25 µg/mL gentamicin, supplemented with 0.5% (m/v) AlbuMAX II. The culture medium was changed daily, and the parasitaemia was maintained below 10% with 2.5% haematocrit in human erythrocytes.
The parasites were synchronized through sterile 5% (m/v) D-sorbitol treatment over 10 min at 37 °C for the enrichment of ring-stage parasites. The cultures were pelleted by centrifugation at 600×g over 5 min. The parasitaemia was determined by microscope analysis of thin blood smears stained with Giemsa 10% (v/v) after methanol fixation. The initial parasitaemia was calculated from 1000 red blood cells (RBCs), and cultures were diluted to 0.5% parasitaemia and 2% haematocrit by adding the appropriate volumes of erythrocytes and medium. Parasite aliquots of 180 µL were distributed into 96-well plates previously prepared with 20 µL aliquots of a tenfold concentrated compound. Negative and positive control wells corresponding to non-parasitized erythrocytes and parasite cultures in the absence of compounds were set in parallel. The DMSO concentration was maintained below 0.05% (v/v). The plates were incubated for 72 h at 37 °C in a humidified incubator with a gas mixture of 90% N2, 5% O2 and 5% CO2. After incubation, the culture medium was removed, and the cells were resuspended in 100 µL PBS buffer (116 mM NaCl, 10 mM Na2HPO4, 3 mM KH2PO4) and lysed with 100 µL lysis buffer (20 mM Tris base, 5 mM EDTA, 0.0008% (v/v) Triton X-100, 0.008% (m/v) saponin, pH 8.0) containing 0.002% (v/v) SYBR Green I. Plates were incubated at room temperature for 30 min, and the fluorescence corresponding to the parasitic density was determined using a SpectraMAX Gemini EM plate reader (Molecular Devices Corp., Sunnyvale, CA) (excitation at 485 nm, emission at 535 nm). The half maximal inhibitory concentration (IC50^Pf) was determined by non-linear regression analysis of the resulting concentration-response curve using the software Origin 2016 (OriginLab Corporation).

[5] = tested on: Hepatocarcinoma cells (HepG2); experiment: Cytotoxicity evaluation, neutral red assay; format: cell-based, human; details: HepG2, 72 h, read-out: IC50^HepG2, NR Average (confidence interval-95%)
Protocol: as §1, §2

[6] = tested on: P. falciparum 3D7 strain; design: method as in PMID 23798988; details: reported potency of Malaria Box compounds ref 13, read-out: Reported IC50^Pf; cited from earlier work
[7] = tested on: P. berghei NK65 strain; experiment: In vivo suppressive parasite growth test against Plasmodium berghei; design: species or system Swiss outbred mice; details: 20 mg/kg, positive control, P. berghei-infected mice
Protocol: A suppressive parasite growth test was performed in mice infected with P. berghei NK65 strain (originally received from the New York University Medical School), as described previously, with some modifications. Briefly, adult Swiss outbred mice (20 ± 2 g weight) were intraperitoneally inoculated with 1 × 10^5 red blood cells infected with P. berghei. The infected mice were maintained together for at least 2 h and then randomized into groups of 5 animals per cage, which were subsequently administered 50 mg/kg of each compound diluted in 3% (v/v) DMSO by oral gavage daily for 3 days. Two control groups were used in parallel: one was treated with CQ (20 mg/kg) and the other was treated with the vehicle. Blood smears from mouse tails were prepared on days 5 and 7 post-infection and then fixed with methanol, stained with Giemsa 10% (v/v), and examined under the microscope.

[8] = tested on: asexual intraerythrocytic stages of P. falciparum; experiment: Speed of action studies (microscopy of thin blood smears); format: cell-based, Plasmodium falciparum; details: ring-stage parasites; for Parasite morphology during incubation: compound at tenfold the IC50, microscopy up to 36 h; for Speed of action: compound at tenfold the IC50, observed 0-36 h
Protocol: Parasites in thin blood smears were observed by microscopy after 0, 8, 16, 24 and 36 h of incubation.

| IC50 [4] [nM] | SMILES | Isobologram data, Additive: fraction of FIC50 pairs [3] [%] | Isobologram data, Additive: number of FIC50 pairs [3] | Isobologram data, Antagonistic: number of FIC50 pairs [3] | Isobologram data, Synergic: number of FIC50 pairs [3] | Combination profile with artesunate [3] | IC50 [6] [nM] | IC50 [1] [nM] | Isobologram data, Antagonistic: fraction of FIC50 pairs [3] [%] | Parasite morphology during incubation [8] | Speed of action [8] | IC50 [5] [nM] | other results |
| --- | --- | --- | --- | --- | --- | --- | --- | --- | --- | --- | --- | --- | --- |
|  | C[C@H]1[C@H](OC(=O)CCC(=O)O)O[C@@H]2O[C@@]3(C)CC[C@H]4[C@H](C)CC[C@@H]1[C@@]24OO3 [Artesunate, reference compound] | 100 | 15 | 0 | 0 | Additivity | 8 |  |  |  |  |  | IC50 ([1]; Homo sapiens): 110000 nM; Speed of action (literature) [2]: fast; Combination profile with artesunate ([3]; listed as artesunate): additive; IC50 ([4]; Plasmodium falciparum): 17 nM; IC50 ([5]; Homo sapiens): 110000 nM |
|  | CCN(CC)CCCC(C)Nc1ccnc2cc(Cl)ccc12 (stereo not shown) [Chloroquine, reference compound] |  |  |  |  |  |  |  |  |  |  |  | % of reduction of parasitaemia, day 5 after infection [7]: 100%; % of reduction of parasitaemia, day 7 after infection [7]: 100% |
| 74 | CN1CCN(c2ccc(Nc3c4ccccc4nc4ccccc34)cc2)CC1 [Compound 1] | 8 | 1 | 11 | 0 | antagonistic | 142 | 3210 | 92 | pyknotic nuclei formation | Fast | 3340 | Combination profile with artesunate ([3]; listed as 01): Antagonism |
| 340 | Brc1ccc(Nc2nc3ccccc3nc2Nc2ccc(Br)cc2)cc1 [Compound 3] | 38 | 5 | 8 | 0 |  | 1060 | 5100 | 62 | punctual shapes after 16 h | Fast | > 6250 | Combination profile with artesunate ([3]; listed as 03): Antagonism |
| 440 | O=[N+]([O-])c1ccc(C=NNc2nc3ccccc3[nH]2)cc1 [Compound 4] | 8 | 1 | 12 | 0 |  | 142 | > 6250 | 92 | young trophozoites were observed after 36 h | slow-acting and Slow | > 6250 | Combination profile with artesunate ([3]; listed as 04): Antagonism |
| 250 | CCn1c(CN2CCN(Cc3ccccc3)CC2)nc2cc(NC(=O)c3cccs3)ccc21 [Compound 5] | 15 | 2 | 11 | 0 |  | 512 | 90000 | 85 | punctual shapes after 16 h | fast-acting and Fast | > 100000 | Combination profile with artesunate ([3]; listed as 05): Antagonism |
| 1000 | O=C(Nc1ccc(C23CC4CC(CC(c5ccccc5)(C4)C2)C3)cc1)c1cccs1 [Compound 7] | 22 | 2 | 7 | 0 |  | 826 | > 25000 | 78 | punctual shapes after 16 h | fast-acting and Fast | > 25000 | Combination profile with artesunate ([3]; listed as 07): Antagonism |
| 1600 | Fc1ccc2[nH]c3c(NCCCN4CCOCC4)ncnc3c2c1 [Compound 11] |  | 0 | 12 | 0 | antagonistic; also recorded: Antagonism | 345 | > 50000 | 100 | punctual shapes after 16 h | Fast | > 50000 |  |
